Measurements reported in patent US4287191A, “Novel salicylanilides and microbiocidal compositions and uses thereof” (The Research Foundation of State University of New York, priority 1980, dated 1981).
In brackets after ≈: the same amount, converted by molar mass. Like-named read-outs stand apart in the source and are kept apart here. One block for each compound: values may come before it.

Legend:
A.viscosus [1] = assay: Bactericidal effects against established dental plaque (nichrome wires), A.viscosus; format: cell-based; details: Actinomyces viscosus, 2 min, read-out: Minimum Concentration Required for Complete Bactericidal Effect
Method: (§1) In vitro plaques are grown on no. 20 nichrome wires by fixing the wires to culture tube closures to suspend the wires into a complex culture medium supplemented with 5% by wt of sucrose and 0.005% sodium carbonate. Separate cultures are initially inoculated with A.viscosus and S.mutans and the wires are transferred daily to fresh medium until the wire-adherent microorganisms form well established plaques. All cultures are incubated at 37 degrees C. Plaque coated wires are then immersed in a solution of composition to be tested. The compositions tested are AN-10 and Chlorhexidine. The immersion time is two minutes. The solution in which the composition is dissolved is the same solution used to dissolve the composition in the previous example. The plaque is then rinsed with distilled water and transferred to fresh medium. The lack of growth in the fresh medium is considered as an indication that the microorganisms have been killed. Further plaque coated wires are treated as previously described until sufficient information is obtained to determine the minimum concentration of composition required to kill the microorganisms.

S.mutans [2] = assay: Bactericidal effects against established dental plaque (nichrome wires), S.mutans; format: cell-based; details: Streptococcus mutans, 2 min, read-out: Minimum Concentration Required for Complete Bactericidal Effect
Method: as §1

A.naeslundii = assay: Plaque growth inhibition in vitro on bovine tooth slabs, A.naeslundii; format: cell-based, Actinomyces naeslundii; details: for IC50: Actinomyces naeslundii, 2 min slab exposure, about 24 h incubation, anaerobic, reliability + or -80% or better
Method: (§2) The composition prepared in example 2 above is tested in vitro for plaque inhibition in comparison with prior art compounds. The test used is set forth in detail in Comparison of Antiplaque Agents Using an In Vitro Assay Reflecting Oral Conditions by R. T. Evans et al, Journal of Dental Research, June 1977.
(§3) In summary bovine mandibles, obtained immediately after slaughter, are cut into 4×8 mm slabs and sterilized in a 0.15 M NaCl solution buffered at a pH of 7.5 with 0.02 M sodium phosphate (PBS soln.) Before use the slabs are coated with sterile saliva and then rinsed twice in sterile PBS. The slabs are then placed in small plastic petri dishes containing various concentrations of the compositions to be tested. The test solution used in accordance is a solution of the composition in a mixture of 20% by volume of ethanol, 40% by volume of propylene glycol and 40% by volume of a pH 8 aqueous buffer solution containing mono and di sodium phosphates. The slabs are left in the solution of the composition for two minutes and then rinsed in sterile PBS solution. After rinsing, each slab is placed in a 10×75 mm cotton stoppered glass culture tube containing 1 ml of sucrose-broth culture medium which is then innoculated with a 24 hour culture of the desired microorganism standardized to an optical density (OD) 540 of 1.0 for A. naeslundii and S. sanguis and of 0.75 for A. viscosus and S. mutans. 50 μl of the inoculation medium is used. A. viscosus is incubated under aerobic conditions and the others are incubated under anaerobic conditions (5% CO2 and 95% H2). After incubation for about 24 hours the nonadherent organisms are removed and the tube is rinsed twice with 0.5 ml of PBS and the washings combined with the nonadherent organisms.
(§4) The tooth slabs are then transferred to 1 ml of 0.1 N NaOH and 1 ml of 0.1 N NaOH is also added to the glass culture tubes. The slabs and tubes are then sonically agitated, if necessary to suspend the adherent organisms. The optical density of each of the three fractions is then measured on a spectophotometer. The tests are repeated with varying concentrations of the compositions being tested until growth inhibition curves can be developed. The 50% growth inhibition dosages (ID50) are then determined with a reliability of + or -80% or better.

A.viscosus [3] = assay: Plaque growth inhibition in vitro on bovine tooth slabs, A.viscosus; format: cell-based, Actinomyces viscosus; details: for IC50: Actinomyces viscosus, 2 min slab exposure, about 24 h incubation, aerobic, reliability + or -80% or better
Method: as §2, §3, §4

S.sanguis = assay: Plaque growth inhibition in vitro on bovine tooth slabs, S.sanguis; format: cell-based, Streptoccus sanguis; details: for IC50: 2 min slab exposure, about 24 h incubation, anaerobic, reliability + or -80% or better; for % Inhibition @ Mol.Conc.: @ 1 × 10^-3 Mol.Conc.
Method: as §2, §3, §4

S.mutans [4] = assay: Plaque growth inhibition in vitro on bovine tooth slabs, S.mutans; format: cell-based, Streptococcus mutans; details: for IC50: Streptococcus mutans, 2 min slab exposure, about 24 h incubation, anaerobic, reliability + or -80% or better
Method: as §2, §3, §4

[5] = background statement; cited from earlier work
Actinomyces viscosus = assay: Minimum concentration which will completely inhibit growth, Actinomyces viscosus; format: cell-based; details: A.viscosus, growth medium, read-out: Min. Conc. (minimum concentration which will completely inhibit growth)
[6] = Acute oral toxicity of AN-10 (single dose, gavage); format: in vivo
Method: Sixteen female white rats averaging 265 grams in weight were fasted overnight and divided into four groups of four animals each. In one group each animal received, by gavage tube, 4 ml of an aqueous solution of 1% methylcellulose, the drug delivery vehicle. This group was the control group. The remaining three groups received doses of 50, 750, and 2000 mg/kg of AN-10 in 4-ml aqueous suspension, respectively.
This animal had received the 50 mg/kg dose.
From this experiment it can be concluded that the LD50 for AN-10 by the single dose oral route is greater than 2000 mg/kg in Osborne-Mendel white rats.

Staphylococcus aureus = assay: Minimum concentration to completely inhibit growth, Staphylococcus aureus; format: cell-based; details: procedure of Example 6
Method: AN-10 is tested for effectiveness against the bacterium Staphylococcus aureus in accordance with the procedure set forth in Example 6.

S. mutans = assay: Minimum concentration which will completely inhibit growth, S. mutans; format: cell-based; details: Streptococcus mutans, procedure of Example 6
Method: 5-n-octanoyl-2',3',4',5',6'pentafluorosalicylanilide is tested for effectiveness against S. mutans essentially in accordance with the procedure of Example 6.

[7] = A.viscosus established plaque, immersion time two minutes
[8] = S.mutans established plaque, immersion time two minutes

Compound: [H]/N=C(\N/C(=N/[H])NCCCCCCNC(=N)NC(=N)Nc1ccc(Cl)cc1)Nc1ccc(Cl)cc1 [CLHX, Chlorhexidine]
MBC (A.viscosus [1]; [7]): 500 µg/mL (≈ 989 µM)
MBC (S.mutans [2]; [8]): 250 µg/mL (≈ 495 µM)
% Inhibition @ Mol.Conc. (A.naeslundii; @ 1 × 10^-3 Mol.Conc.): 78%
IC50 (A.naeslundii; read-out: ID50 Adherent Growth): 5100 µM
IC50 (A.naeslundii; read-out: ID50 Total Growth): 4400 µM
% Inhibition @ Mol.Conc. (A.viscosus [3]; @ 1 × 10^-3 Mol.Conc.): 85%
IC50 (A.viscosus [3]; read-out: ID50 Adherent Growth): 29 µM
IC50 (A.viscosus [3]; read-out: ID50 Total Growth): 23 µM
IC50 (S.sanguis; read-out: ID50 Adherent Growth): 85000 µM
IC50 (S.sanguis; read-out: ID50 Total Growth): 390 µM
% Inhibition @ Mol.Conc. (S.sanguis): 70%
% Inhibition @ Mol.Conc. (S.mutans [4]; @ 1 × 10^-3 Mol.Conc.): 95%
IC50 (S.mutans [4]; read-out: ID50 Adherent Growth): 97 µM
IC50 (S.mutans [4]; read-out: ID50 Total Growth): 86 µM

Compound: tetrachlorosalicylanilide
allergic reactions in man [5]: allergic reactions in man

MIC (Actinomyces viscosus): 0.125 µg/mL (≈ 0.28 µM)
Compound: CCCCCCCCCC(=O)c1ccc(O)c(C(=O)Nc2ccc(Br)cc2)c1 [5-n-decoyl-4'-bromosalicylanilide]

Compound: CCCCCCCCCC(=O)c1ccc(O)c(C(=O)Nc2ccc([N+](=O)[O-])cc2)c1 [AN-10, 5-n-decanoyl-4'-nitrosalicylanilide]
MBC (A.viscosus [1]; [7]): 125 µg/mL (≈ 303 µM)
deaths within the first week following single dose ([6]; 50, 750 and 2000 mg/kg oral, four rats each, the one death (50 mg/kg) attributed to trauma of administration): only one animal died
LD50 ([6]; rat, in vivo, single dose oral route, female Osborne-Mendel white rats): > 2000 mg/kg
MIC (Staphylococcus aureus): < 10 µg/mL
MBC (S.mutans [2]; [8]): 62.5 µg/mL (≈ 152 µM)
% Inhibition @ Mol.Conc. (A.naeslundii; @ 3.3 × 10^-4 Mol.Conc.): 96%
IC50 (A.naeslundii; read-out: ID50 Adherent Growth): 43 µM
IC50 (A.naeslundii; read-out: ID50 Total Growth): 83 µM
% Inhibition @ Mol.Conc. (A.viscosus [3]; @ 1 × 10^-4 Mol.Conc.): 96%
IC50 (A.viscosus [3]; read-out: ID50 Adherent Growth): 70 µM
IC50 (A.viscosus [3]; read-out: ID50 Total Growth): 73 µM
IC50 (S.sanguis; read-out: ID50 Adherent Growth): 670 µM
IC50 (S.sanguis; read-out: ID50 Total Growth): 370 µM
% Inhibition @ Mol.Conc. (S.sanguis): 86%
% Inhibition @ Mol.Conc. (S.mutans [4]; @ 1 × 10^-3 Mol.Conc.): 59%
IC50 (S.mutans [4]; read-out: ID50 Adherent Growth): 23000 µM
IC50 (S.mutans [4]; read-out: ID50 Total Growth): 1600 µM

MIC (Actinomyces viscosus): 0.5 to 1 µg/mL (≈ 1.08 to 2.16 µM)
Compound: CCCCCCCCCCCC(=O)c1ccc(O)c(C(=O)Nc2cccc(C(F)(F)F)c2)c1 [5-n-dodecoyl-3'-trifluoromethylsaliclyanilide]

MIC (Actinomyces viscosus): 0.05 µg/mL (≈ 0.105 µM)
Compound: CCCCCCCCCCCC(=O)c1ccc(O)c(C(=O)Nc2ccc(Br)cc2)c1 [5-n-dodecoyl-4'-bromosalicylanilide]

Compound: O=C(Nc1ccc(Br)cc1)c1cc(Br)cc(Br)c1O [TBS, Tribromosalan]
MBC (A.viscosus [1]): 500 µg/mL (≈ 1110 µM)
MBC (S.mutans [2]): 1000 µg/mL (≈ 2220 µM)
% Inhibition @ Mol.Conc. (A.naeslundii; @ 1.5 × 10^-3 Mol.Conc.): 86%
% Inhibition @ Mol.Conc. (A.viscosus [3]; @ 1 × 10^-3 Mol.Conc.): 53%
% Inhibition @ Mol.Conc. (S.sanguis): 46%
% Inhibition @ Mol.Conc. (S.mutans [4]; @ 1.5 × 10^-3 Mol.Conc.): 46%

MIC (S. mutans): ~0.5 µg/mL (≈ 1.16 µM)
Compound: CCCCCCCC(=O)c1ccc(O)c(C(=O)Nc2c(F)c(F)c(F)c(F)c2F)c1 [5-n-octanoyl-2',3',4',5',6'pentafluorosalicylanilide]

MIC (Actinomyces viscosus): 0.05 µg/mL (≈ 0.113 µM)
Compound: CCCCCCCCCCCC(=O)c1ccc(O)c(C(=O)Nc2ccc([N+](=O)[O-])cc2)c1 [5-n-dodecoyl-4'-nitrosalicylanilide]

Compound: O=C(Nc1cccc(C(F)(F)F)c1)c1cc(Br)cc(Br)c1O [SBF-1, Fluorophene]
% Inhibition @ Mol.Conc. (A.viscosus [3]; @ 3.3 × 10^-3 Mol.Conc.): 65%
% Inhibition @ Mol.Conc. (S.mutans [4]; @ 2 × 10^-3 Mol.Conc.): 86%

MIC (Actinomyces viscosus): 0.125 µg/mL (≈ 0.325 µM)
Compound: CCCCCCCC(=O)c1ccc(O)c(C(=O)Nc2ccc([N+](=O)[O-])cc2)c1 [5-n-octoyl-4'-nitrosalicylanilide]
